“Also recorded” adds a separate entry of the source.
Assays:
[1] = system: CACO-2 epithelium cells / B6 Macrophages; experiment: CACO-2 trans-well system with macrophages in lower well, metabolites JE, MQ, NC; assay type: cell-based; conditions: for ability to cross the tight junctions of epithelial cells: 50 μM in upper well on CACO-2 cells, overnight; for TNFα production by cells in lower chamber: 50 μM in upper well overnight, 200 ng/ml LPS 3 hours
Method: FIG. 8A-8B. The assessment of the permeability of the differentiated CACO-2 epithelium cells after the treatment of JE, MQ, and NC in trans-well system. (FIG. 8A) CACO-2 cells were seeded in the upper well, and B6 Macrophages were placed into the lower well. 50UM of JE, MQ, NC, or combination of all three was added to CACO-2 cells in the upper well. Samples and controls were incubated overnight at 37° C., 5% CO2, followed by the addition of 200 ng/ml LPS to the upper and lower wells for 3 hours (Left: lower chambers, right: upper chambers). Cell culture supernatants were collected and an ELISA was used to measure TNFα or IL-6 concentrations. (FIG. 8B) FitC-dextrans (4 KDa) were added into the upper chamber simultaneously as the sample tests were added. A high concentration of hydrochloric acid (HCl) as a control was added to the upper chamber to disrupt the tight junctions. FitC-dextran collected from the bottom chamber was measured by a fluorescence spectrometer (excitation, 490 nm; emission, 520 nm). Data shown are representative mean±s.d. (***, p<0.001, **, p<0.01).
As stated before, commensal bacteria are non-invading and the metabolites must be able to cross the epithelium to mediate their functions and our earlier data confirmed <10 kD fraction pertained this ability. Therefore, we used the trans-well system to test if the identified metabolites were able to cross the epithelium. As we did previously, Caco-2 cells were culture for 2 weeks, to allow tight junctions to form. While the lower chamber contained C57BL/6 mouse BMDMs. We then measured the ability for NC, MQ and JE to cross the tight junctions without disrupting the integrity of the tight junctions. We did each separately and combined as well.

[2] = system: THP-1 macrophages; experiment: Metabolites on LPS-stimulated TNFα/IL-6 production, THP-1 macrophages; assay type: cell-based, human; conditions: for IL-6 expression (FIG. 6): 10 μM JE, 10 μM MQ, 50 μM NC or combinations, 16 hours, 200 ng/ml LPS three hours; for LPS-stimulated macrophage production of IL-6 / LPS-stimulated macrophage production of TNFa: 10 or 50 μM, 16 hours pre-treatment, 200 ng/mL LPS 3 hours, ELISA
Method: (§1) FIG. 5A-C. Bacteria metabolites (MQ, JE, and NC) reduce expression of pro-inflammatory cytokines. Mouse macrophages cells, (FIG. 5A, FIG. 5B) Human Corneal Epithelial Cells (FIG. 5C) or THP-1 macrophages (FIG. 5D) were pre-treated with either 10 μM (3.5 μg/mL), 50 μM (17 μg/mL) of JE, 10UM (4.9 μg/mL), 50 μM (24 μg/mL) of MQ or combination of both for 16 hours, followed by 200 ng/mL of LPS to Mouse macrophages/THP1 cells, and 100 ng/ml of Flagellum to HCECs for 3 hours. The supernatants were collected and TNFα, IL-6 concentration was measured by ELISA. *, P<0.05, **. P<0.01, ***, P<0.001.
FIG. 6. Bacteria metabolites (MQ, JE, and NC) reduce IL-6 expression. THP-1 macrophages were pre-treated with either 10 μM (3.5 μg/mL) of JE, 10 μM (4.9 μg/mL) of MQ or 50UM of NC or different combinations of all three for 16 hours, followed by 200 ng/ml of LPS for three hours. Supernatants were collected and IL-6 concentration was measured by ELISA. **. P<0.01.
(§2) Next, the metabolites were tested individually to assess their regulatory effects on mouse macrophages and human THP-1 macrophages. Similar to the bacterial <10 kD supernatant fraction, both JE and MQ inhibited LPS-stimulated macrophage production of TNFa and IL-6 (FIG. 5), indicating it suppresses TLR4 agonist-induced production of pro-inflammatory cytokines by macrophages.
(§3) Cell Culture: Multiple macrophage cell lines were used in these experiments. Primary murine BMDMs were differentiated through isolation and treatment with L929 conditioned medium. C57BL/6 macrophages and BMDMs were seeded in complete DMEM (10% FBS+1% Penicillin-Streptomycin) in 24-well plates at concentrations of 5×10^5 and 2.5×10^5, respectively. THP-1 cells were maintained and grown in complete RPMI-1640 medium. Cells were differentiated by stimulating with PMA (100 nM) for three hours at 37° C. with 5% CO-2 until adherent. They were then collected and plated at a density of 2.5×10^5 cells per well in 24-well plates with serum-free RPMI and incubated overnight.

[3] = system: NLRP3 inflammasome; experiment: Metabolites on IL-1β production after LPS priming and ATP, THP-1 macrophages; assay type: cell-based, human; conditions: 10 or 50 μM 16 hours, 200 ng/ml LPS three hours, 5 mM ATP one hour
Method: (§4) FIG. 7A-7B. Bacteria metabolites (MQ and JE) reduce IL-1β expression. Murine macrophages, (FIG. 7A) or THP-1 macrophages (FIG. 7B) were pre-treated with either 10 μM (3.5 μg/mL), 50 μM (17 μg/mL) of JE, 10 μM (4.9 μg/mL), 50 μM (24 μg/mL) of MQ or combination of both for 16 hours. Macrophages were primed with 200 ng/ml of LPS for three hours, followed by inflammasome activation with 5 mM ATP for one hour. Supernatants were collected, IL-1B was measured by ELISA. ***, P<0.001
as §2

[4] = system: NLRP3 inflammasome; experiment: Metabolites on IL-1β production after LPS priming and ATP, murine macrophages; assay type: cell-based, mouse; conditions: 10 or 50 μM 16 hours, 200 ng/ml LPS three hours, 5 mM ATP one hour
Method: as §4, §2

[5] = system: Mouse macrophages; experiment: Metabolites on LPS-stimulated TNFα/IL-6 production, mouse macrophages; assay type: cell-based; conditions: 10 or 50 μM, 16 hours pre-treatment, 200 ng/mL LPS 3 hours, ELISA
Method: as §1, §2, §3

[6] = system: IC-21 murine peritoneal macrophages; experiment: Toxicity assay, Cell Counting Kit-8 viability; assay type: cell-based, mouse; conditions: 37° C. two days, CCK-8
Method: FIG. 10. […] IC-21 murine peritoneal macrophages were seeded at a density of 2.0×10^4 per well in a 96-well plate. Differing concentrations of compound JE ranging from […] were diluted in DMSO and added to the appropriate wells. Cells were incubated at 37° C. for 48 hours. After the incubation period, Cell Counting Kit-8 (Sigma-Aldrich) was used for quantification of viable cells. CCK-8 solution was added to each well and the plate was incubated at 37° C. for two hours. Levels of water-soluble tetrazolium salt reduced to formazan were then measured at a wavelength of 450 nm. Cell viability was found as a percentage by dividing each absorbance value by the negative control.
To test if JE has any toxicity, we first incubated murine macrophages with JE at different concentrations at 37° C. for two days, and determined viability of the cells. […] Further we injected the JE at 50 μM twice daily via I.P. for 3 or 5 days and then determined ALT levels in sera and examined the morphology in key organs, liver, kidney, spleen, intestines etc.

Compound: Prednicarbate [MQ]
- ability to cross the tight junctions of epithelial cells [1]: can pass through
- TNFα production by cells in lower chamber [1]: suppress
- IL-6 expression (FIG. 6) [2]: reduce
- LPS-stimulated macrophage production of IL-6 [2]: inhibited
- LPS-stimulated macrophage production of TNFa [2]: inhibited
- IL-β production stimulated by LPS and ATP [3]: inhibited
- IL-β production stimulated by LPS and ATP [4]: inhibited
- LPS-stimulated macrophage production of IL-6 [5]: inhibited
- LPS-stimulated macrophage production of TNFa [5]: inhibited

Compound: CCCCCCCCCCCCCCCC(=O)N[C@@H](C(=O)O)[C@H](C)O [NC, N-Palmitoyl-D-Threonine]
- ability to cross the tight junctions of epithelial cells [1]: can pass through
- TNFα production by cells in lower chamber [1]: suppress
- IL-6 expression (FIG. 6) [2]: reduce

Compound: CC(=O)O[C@@H]1CC[C@H]2[C@H]3CC[C@H]4CC(F)(F)CC[C@]4(C)[C@H]3CC[C@]12C [JE, 3,3-Difluoro-5-alpha-androstan-17-beta-yl acetate]
- TNFα production by cells in lower chamber [1]: suppress
- IL-6 expression (FIG. 6) [2]: reduce
- LPS-stimulated macrophage production of IL-6 [2]: inhibited
- LPS-stimulated macrophage production of TNFa [2]: inhibited
- IL-β production stimulated by LPS and ATP [3]: inhibited
- viability of the cells ([6]; JE 50 μM or below): high viability; also recorded: did not show significant reduction
- viability of the cells ([6]; JE >100 μM): reduced the viability
- IL-β production stimulated by LPS and ATP [4]: inhibited
- LPS-stimulated macrophage production of IL-6 [5]: inhibited
- LPS-stimulated macrophage production of TNFa [5]: inhibited
